The assay deals with T1, nicotinic receptors containing the α7 subunit (Rattus norvegicus, UniProt Q05941).
T1 construct: displace the [^3H]-MLA bond on the rat hippocampus membranes; from tissue; host or cells: hippocampus of female Sprague-Dawley rats (membrane preparation)
In words: binding to nicotinic receptors containing the α7 subunit, competition versus [3H]-methyllycaconitine on rat hippocampus membranes. The following applies: apparent affinity constant by Cheng and Prusoff, displacement of 5 nM [3H]-MLA, 2 hours at about 20° C. The procedure:
The compounds of the invention were tested for their ability to bind the nicotinic receptors containing the α7 subunit using a test of binding to preparations of rat brain membranes according to the methods described hereunder:
Frozen specimens of hippocampus from the brain of female Sprague-Dawley rats were stored at −20° C. until used. The hippocampi from 10 rats were combined and homogenized using a pulverizer of the Polytron type in 10 volumes of an ice-cooled buffer with the following composition: KCl (11 mM); KH2PO4 (6 mM); NaCl (137 mM); Na2HPO4 (8 mM); HEPES (20 mM); iodoacetamide (5 mM); EDTA (1.5 mM); PMSF (0.1 mM). The pH was adjusted to 7.4 with NaOH. […]
The binding of the compounds of the invention for receptors containing the α7 subunit was measured by competition versus [^3H]-methyllycaconitine ([^3H]-MLA), a radiolabeled tracer which recognizes the α7 receptors (Davies et al., Neuropharmacology 1999, 38, 679-690) according to conventional methods adapted to the format of 96-well plates. The ability of the compounds of the invention to displace the [^3H]-MLA bond on the rat hippocampus membranes was determined in duplicate after incubation for 2 hours at a temperature close to 20° C. […] The non-specific binding was determined in specific wells containing 10 μM of non-radiolabeled MLA. […]

T1 sequence (Q05941 23-502): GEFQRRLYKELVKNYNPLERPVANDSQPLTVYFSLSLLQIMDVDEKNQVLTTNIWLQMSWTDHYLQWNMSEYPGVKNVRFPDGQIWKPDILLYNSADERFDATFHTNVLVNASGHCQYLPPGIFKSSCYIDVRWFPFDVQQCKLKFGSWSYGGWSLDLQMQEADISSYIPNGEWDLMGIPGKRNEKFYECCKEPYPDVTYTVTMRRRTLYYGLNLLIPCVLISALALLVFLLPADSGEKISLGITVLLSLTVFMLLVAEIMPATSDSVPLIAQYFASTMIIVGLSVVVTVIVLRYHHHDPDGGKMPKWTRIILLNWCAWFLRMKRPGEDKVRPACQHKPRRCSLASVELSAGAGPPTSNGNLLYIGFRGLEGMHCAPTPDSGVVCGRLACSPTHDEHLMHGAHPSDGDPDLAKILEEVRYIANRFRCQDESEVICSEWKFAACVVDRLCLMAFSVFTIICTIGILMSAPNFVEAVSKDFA

In the case of `CCN(CC)CCCNc1nnc(-c2cn(-c3ccccc3)c3ccccc23)c(=O)[nH]1` [Compound No. 11, 6-(1-phenyl-indol-3-yl)-3-(3-diethylaminopropylamino)-4H-1,2,4-triazin-5-one], the Ki worked out at 737 nM.
Under `CCN(CC)CCCNc1nnc(-c2csc3ccccc23)c(=O)[nH]1` [Compound No. 12, 6-(benzothiophen-3-yl)-3-(3-diethylaminopropylamino)-4H-1,2,4-triazin-5-one] stands 957 nM.
